Test results published in patent US10342874B2, “Glucosamine peptide compounds for treating liver metabolic disorders” (Far Eastern Memorial Hospital, priority 2017, dated 2019).

How the values were obtained:
HepG2 cells = assay: Oleic acid-induced in vitro fatty liver cell model, lipid droplets by Oil Red O staining quantified by Image J; format: cell-based, human; details: for lipid droplet accumulation: HepG2, 10 nM compound for 24 hours
Method: Human hepatocellular carcinoma cell line HepG2 was cultured in Dulbecco's modified Eagle's medium (DMEM, containing 4,500 mg/L D-glucose and L-glutamine) supplemented with 10% fetal bovine serum and 1% penicillin/streptomycin at 37° C. incubator with 5% CO2. To induce in vitro fatty liver cell model on HepG2 with oleic acid-bovine serum albumin complex (Sigma-Aldrich, USA), HepG2 cells were cultured in a 24-well plate at a cell volume of 8×10^4; after 18 to 24 hours when a 70% confluence of cell growth has reached, 0.1 mM of oleic acid was added for culturing for 24 hours. After the replacement of culture medium containing oleic acid, 0.5 μg/mL, 1 μg/mL, 2.5 μg/mL, 5 μg/mL and 10 μg/mL of Compound A were added to DMEM containing 2% fetal bovine serum for culturing for 8 hours; each experimental group performed four repetitions.
Oil Red O (ORO) staining was used to confirm the level of lipid droplets, e.g., amount of red particles, in HepG2. After 24 hours of oleic acid treatment, HepG2 cells were fixed with 4% paraformaldehyde for 15 minutes, followed by phosphate-buffered saline (PBS) washing for three times and then ORO staining for 1 hour. After staining, the cells were washed with PBS for three times, followed by hematoxylin staining for 5 minutes. The coverslip was reversely placed on the slide and sealed with glycerine for observation with optical microscope; images were taken and saved as electronic files.
Intracellular lipid droplets were quantified by Image J (National Institutes of Health, NIH) after adjustment to a proper threshold value. Images with at least 20 cells were analyzed and quantified by Image J with the “analyze particles” functions in threshold single sections with size (pixel^2) setting from 0.1 to 10.
(§1) Similar to Example 1, to induce in vitro fatty liver cell model on HepG2 with oleic acid, HepG2 cells were cultured in a 24-well plate at a cell volume of 8×10^4 and added with 0.1 mM of oleic acid for 24-hour culturing. After the replacement of culture medium containing oleic acid, 10 μg/mL of Compound A was added to DMEM for culturing for 4 hours, 8 hours, 16 hours, and 24 hours; each time point performed four repetitions. ORO staining was used to confirm the level of lipid droplets in HepG2, and their number and size were quantified by Image J.
Compound C, which is a derivative of Compound A, was also tested to further investigate the effect of glucosamine peptide compounds defined herein, including Compound A and its derivatives, on the formation of intracellular lipid droplets. Similar to Example 2, to induce in vitro fatty liver cell model on HepG2 with oleic acid, HepG2 cells were cultured in a 24-well plate at a cell volume of 8×10^4 and added with 0.1 mM of oleic acid for 24-hour culturing. After the replacement of culture medium containing oleic acid, 10 nM of Compound A and 10 nM of Compound C were individually added to different DMEMs for culturing for 24 hours, and four repetitions were performed for both Compound A and Compound C. ORO staining was used to confirm the level of lipid droplets in HepG2, and their number and size were quantified by Image J.

[1] = test system: C57BL/6JNarl male mice fed with high fat diet; assay: Fatty liver animal test: liver appearance and liver weight; format: in vivo; details: HFD mice, 2 mg/kg intraperitoneal, three times a week for two weeks; compared with Group 2 (HFD)
Method: (§2) 24 C57BL/6JNarl male mice at 5 weeks of age were purchased from the National Laboratory Animal Center and housed in the laboratory animal room of the Far Eastern Memorial Hospital at a constant temperature of 22° C., 55% humidity, automatic air regulation (ventilation rate of 12 times per hour), automatic light control (12:12 hour light/dark cycle), and provided with free access to water and chow diet D12450B (Research Diets, Inc.) for two weeks.
(§3) Then the 24 mice (7 weeks of age) were randomly divided into four groups, each containing six mice—Group 1 is the chow diet (CD) control group fed with chow diet D12450B; Group 2 is the high fat diet (HFD) group fed with high fat diet (i.e., modified D12492); Group 3 is the HFD+Compound A treatment group provided with high fat diet and Compound A; and Group 4 is the HFD+Compound B treatment group provided with high fat diet and Compound B.
(§4) Group 1 was fed with chow diet for 18 weeks, followed by 2 more weeks of chow diet, and then given an intraperitoneal injection of saline, without receiving Compound A or Compound B. Group 2, the HFD group, was fed with high fat diet for 18 weeks, followed by 2 more weeks of high fat diet, and then given an intraperitoneal injection of saline, without receiving Compound A or Compound B. Group 3, the HFD+Compound A treatment group, was fed with high fat diet for 18 weeks and then given an intraperitoneal injection of 2 mg/kg of Compound A per mouse, three times a week (once every one or two days) for two weeks, a total of six injections of Compound A. Group 4, the HFD+Compound B treatment group, was fed with high fat diet for 18 weeks and then given an intraperitoneal injection of 2 mg/kg of Compound B per mouse, three times a week (once every one or two days) for two weeks, a total of six injections of Compound B. After completion of feeding and treatment described above, the mice were weighed and euthanized with CO2, and their blood and liver tissue specimens were collected for analysis.

[2] = test system: C57BL/6JNarl male mice fed with high fat diet; assay: Blood biochemistry of fatty liver mice; format: in vivo; details: HFD mice; for aspartate transaminase (AST) and alanine transaminase (ALT) compared with Group 2: 2 mg/kg, statement in words; for ALT / AST / GLU / T-CHO / TG: serum, 2 mg/kg intraperitoneal, six injections in two weeks, mean ± SD, six mice
Method: as §2, §3, §4
Blood samples from mice of each group in Example 4 were tested for measurement of serum aspartate transaminase (AST), alanine transaminase (ALT), total cholesterol (T-CHO), triglyceride (TG) and glucose (GLU). AST and ALT are common measures of liver function.

[3] = test system: C57BL/6JNarl male mice fed with high fat diet; assay: Analysis of fat amount in liver tissue (H&E stain, Image J); format: in vivo; details: HFD mice; for percentage of area of lipid droplets relative to the total field of view in liver tissue: 2 mg/kg intraperitoneal, compared with Group 2 (HFD)
Method: as §2
as §3, with “B. […]” for “B.”
Image J was used to quantify the percentage of area of lipid droplets relative to the total field of view in mice liver tissues (FIG. 5E). […]

HuH-7 cells = assay: Oleic acid-induced in vitro fatty liver cell model, lipid droplets by Oil Red O staining quantified by Image J; format: cell-based, human
Method: as §1, with “Another human hepatocellular carcinoma cell line HuH-7 was used to test the temporal effect of Compound A to further confirm the effect of Compound A on intracellular lipid droplets. Similar” for “Similar”, “2,” for “1,”, “HuH-7” for “HepG2”, “HuH-7,” for “HepG2,”

[4] = test system: C57BL/6JNarl male mice fed with high fat diet; assay: Analysis of liver tissue fibrosis (Masson's Trichrome, collagen proportionate area); format: in vivo; details: HFD mice; for percentage of collagen proportionate area (CPA) in liver tissue: 2 mg/kg intraperitoneal, compared with Group 2 (HFD)
Method: as §2
as §3, with “B. […]” for “B.”
Nuance multispectral image analysis module (PerknElmer, Inc) was used to quantify the collagen proportionate area (CPA), as shown in FIG. 6E. […]

| Structure (SMILES) | lipid droplet accumulation (HepG2 cells) | liver appearance (size) [1] | aspartate transaminase (AST) and alanine transaminase (ALT) compared with Group 2 [2] | ALT [2] | AST [2] | GLU [2] | T-CHO [2] | TG [2] | percentage of area of lipid droplets relative to the total field of view in liver tissue [3] | percentage of collagen proportionate area (CPA) in liver tissue [4] | other results |
| --- | --- | --- | --- | --- | --- | --- | --- | --- | --- | --- | --- |
| CC(=O)N[C@@H]1[C@@H](O[C@H](C)C(=O)N[C@@H](C)C(=O)N[C@H](CCC(=O)O)C(N)=O)[C@H](O)[C@@H](CO)O[C@H]1O [Compound A] | reduced significantly | smaller livers than Group 2 | significantly lower | 240.5 ± 83.1 U/L | 200.0 ± 68.4 U/L | 287.2 ± 60.0 mg/dL | 225.3 ± 53.2 mg/dL | 30.1 ± 9.8 mg/dL | much lower percentage of area of lipid droplets relative to the total field of view than Group 2 | much lower percentage of collagen proportionate area than Group 2 | treatment time after which significant reduction of lipid droplets is observed (HepG2 cells; HepG2, 10 μg/mL): 4 h; treatment time at which maximum reduction of lipid droplets occurs (HepG2 cells; HepG2, 10 μg/mL): 8 h; number and size of lipid droplets (HepG2 cells; HepG2, 10 μg/mL compound for 4, 8, 16 and 24 hours): decrease with the increase of treatment time of Compound A in a time-dependent manner; number and size of lipid droplets (HepG2 cells; HepG2, 0.1 mM oleic acid 24 h, then 0.5-10 μg/mL compound for 8 hours): decrease with the increase of Compound A concentration in a dose-dependent manner; treatment time after which significant reduction of lipid droplets is observed (HuH-7 cells; HuH-7, 10 μg/mL): 4 h; treatment time at which maximum reduction of lipid droplets occurs (HuH-7 cells; HuH-7, 10 μg/mL): 16 h; number and size of lipid droplets (HuH-7 cells; HuH-7, 10 μg/mL compound for 4, 8, 16 and 24 hours): decrease with the increase of treatment time of Compound A in a time-dependent manner |
| CCCCCCCCCCCCCCCC(=O)OCC(COP(=O)(O)OCCNC(=O)[C@H](C)NC(=O)CC[C@@H](NC(=O)[C@H](C)NC(=O)C(C)O[C@H]1[C@H](O)[C@@H](CO)OC(O)[C@@H]1NC(C)=O)C(N)=O)OC(=O)CCCCCCCCCCCCCCC (stereo partly shown) [Compound B] | – | smaller livers than Group 2 | significantly lower | 185.4 ± 83.1 U/L | 191.3 ± 74.0 U/L | 274.4 ± 31.0 mg/dL | 234.0 ± 33.6 mg/dL | 42.2 ± 18.9 mg/dL | much lower percentage of area of lipid droplets relative to the total field of view than Group 2 | much lower percentage of collagen proportionate area than Group 2 | average liver weight [1]: less than Group 2; ratio of liver weight to body weight (average liver weight percentage) [1]: smaller average liver weight percentage than Group 2; alleviating accumulation of hepatic fat induced by high fat diet, comparison of the compounds ([3]; Group 4 compared with Group 3): more effective than Compound A; alleviating liver fibrosis complicated with fatty liver, comparison of the compounds ([4]; Group 4 compared with Group 3): more effective than Compound A |
| CCCCOC(=O)[C@@H](CCC(N)=O)NC(=O)[C@H](C)NC(=O)[C@@H](C)OC1C(NC(C)=O)[C@@H](O)OC(CO)[C@H]1O (stereo partly shown) [Compound C] | reduced significantly | – | – | – | – | – | – | – | – | – | – |
